Consider 1 molecule from ChEMBL document CHEMBL5537119 (Eur J Med Chem, 2024).

Assay [1] deals with THP-1. The assay can be described thus: cells. The conditions noted are these: Homo sapiens, THP-1, 72 h.
Description: Antiproliferative activity against human THP-1 cells assessed as inhibition of cell growth incubated for 72 hrs by MTT assay
For a further assay, the target named is Histone deacetylase 4 (Homo sapiens, UniProt P56524). In words: Inhibition of human recombinant TEV-8His-tagged HDAC4 (648 to 1057 residues) expressed in Escherichia coli (DE3) Rosetta cells using Boc-Lys-(Tfa)-AMC as substrate preincubated for 5 mins followed by substrate addition and measured after 90 mins by fluorescence based microplate reader analysis.
Histone deacetylase 4, sequence (P56524 whole entry, the tested form may be a part): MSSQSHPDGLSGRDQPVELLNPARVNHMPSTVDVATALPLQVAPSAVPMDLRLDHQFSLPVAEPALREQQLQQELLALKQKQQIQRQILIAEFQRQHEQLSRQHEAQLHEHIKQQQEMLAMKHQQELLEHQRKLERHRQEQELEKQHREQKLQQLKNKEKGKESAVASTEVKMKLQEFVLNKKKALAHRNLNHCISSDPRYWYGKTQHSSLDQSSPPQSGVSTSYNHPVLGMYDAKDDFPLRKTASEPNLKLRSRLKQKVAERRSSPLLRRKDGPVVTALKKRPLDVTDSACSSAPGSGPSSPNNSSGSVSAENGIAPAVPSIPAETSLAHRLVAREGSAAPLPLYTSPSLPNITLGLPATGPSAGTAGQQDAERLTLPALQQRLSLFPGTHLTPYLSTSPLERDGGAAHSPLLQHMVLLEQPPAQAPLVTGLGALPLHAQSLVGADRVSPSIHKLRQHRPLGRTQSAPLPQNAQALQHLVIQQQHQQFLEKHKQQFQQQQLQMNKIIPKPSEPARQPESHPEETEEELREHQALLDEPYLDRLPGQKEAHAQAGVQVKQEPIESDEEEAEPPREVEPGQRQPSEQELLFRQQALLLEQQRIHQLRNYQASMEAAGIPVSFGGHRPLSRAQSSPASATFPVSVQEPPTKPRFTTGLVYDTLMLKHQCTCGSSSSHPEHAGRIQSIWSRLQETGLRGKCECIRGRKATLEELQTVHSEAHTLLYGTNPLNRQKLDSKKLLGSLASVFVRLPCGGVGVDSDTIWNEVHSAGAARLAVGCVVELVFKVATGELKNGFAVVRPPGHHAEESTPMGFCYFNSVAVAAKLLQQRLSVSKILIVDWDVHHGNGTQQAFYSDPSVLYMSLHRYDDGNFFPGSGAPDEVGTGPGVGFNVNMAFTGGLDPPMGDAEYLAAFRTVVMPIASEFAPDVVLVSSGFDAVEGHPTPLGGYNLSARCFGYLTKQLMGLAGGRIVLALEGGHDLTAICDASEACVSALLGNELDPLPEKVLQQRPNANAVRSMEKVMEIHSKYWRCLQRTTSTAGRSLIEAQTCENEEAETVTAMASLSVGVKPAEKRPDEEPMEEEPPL

Assay [2] has as its system THP-1. In words: Antiproliferative activity against human THP-1 cells assessed as reduction in cell viability at 100 uM incubated for 72 hrs by MTT assay relative to control. It is filed as functional.
In assay [3] the test system is THP-1. In words: Inhibition of Class I/IIb HDAC in human THP-1 cells at 100 uM preincubated for 18 hrs followed by substrate addition and measured after 3 hrs by fluorescence based microplate reader assay relative to control. It is filed as cell-based. The conditions noted are these: time 21.0 hrs.
Assay [4] is described as follows: Inhibition of Class I/IIb HDAC in human THP-1 cells preincubated for 18 hrs followed by substrate addition and measured after 3 hrs by fluorescence based microplate reader assay. It is filed as cell-based.
In a further assay the target is Histone deacetylase 2 (Homo sapiens, UniProt Q92769). In words: Inhibition of human recombinant HDAC2 using Boc-Lys(Ac)-AMC as substrate preincubated for 5 mins followed by substrate addition and measured after 90 mins by fluorescence based microplate reader analysis.
Histone deacetylase 2, sequence (Q92769 whole entry): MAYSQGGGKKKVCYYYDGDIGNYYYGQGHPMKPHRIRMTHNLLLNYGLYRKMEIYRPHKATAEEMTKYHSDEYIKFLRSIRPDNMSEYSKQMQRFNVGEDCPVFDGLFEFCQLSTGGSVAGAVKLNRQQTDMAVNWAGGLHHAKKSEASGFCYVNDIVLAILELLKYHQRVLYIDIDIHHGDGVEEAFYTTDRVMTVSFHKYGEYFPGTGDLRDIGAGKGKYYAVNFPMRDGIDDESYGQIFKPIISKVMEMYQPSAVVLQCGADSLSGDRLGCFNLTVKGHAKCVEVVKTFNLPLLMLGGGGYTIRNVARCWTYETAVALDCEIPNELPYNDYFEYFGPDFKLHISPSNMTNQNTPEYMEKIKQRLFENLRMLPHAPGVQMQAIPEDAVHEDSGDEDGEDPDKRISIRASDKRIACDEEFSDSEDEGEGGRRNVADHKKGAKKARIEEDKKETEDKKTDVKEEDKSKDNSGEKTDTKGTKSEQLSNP
Assay [5] relates to THP-1. The assay can be described thus: Inhibition of Class IIa/8 HDAC in human THP-1 cells at 100 uM preincubated for 18 hrs followed by substrate addition and measured after 3 hrs by fluorescence based microplate reader assay relative to control. The format is cell-based. The conditions noted are these: time 21.0 hrs, values are per cent of control.
Another assay has as its target T1, Histone deacetylase 11 (Homo sapiens, UniProt Q96DB2).
T1 sequence (Q96DB2 whole entry): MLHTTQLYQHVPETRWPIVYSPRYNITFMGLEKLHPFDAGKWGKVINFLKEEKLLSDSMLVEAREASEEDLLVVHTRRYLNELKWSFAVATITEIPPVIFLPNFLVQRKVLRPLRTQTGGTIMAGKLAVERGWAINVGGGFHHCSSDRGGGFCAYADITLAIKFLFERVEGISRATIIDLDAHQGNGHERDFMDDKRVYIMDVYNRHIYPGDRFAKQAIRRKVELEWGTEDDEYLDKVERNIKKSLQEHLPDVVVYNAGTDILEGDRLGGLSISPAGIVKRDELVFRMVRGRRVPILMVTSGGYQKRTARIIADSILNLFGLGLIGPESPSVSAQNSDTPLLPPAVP
The assay can be described thus: Inhibition of HDAC11 (unknown origin).

Assay [6] can be described thus: Inhibition of Class IIa/8 HDAC in human THP-1 cells preincubated for 18 hrs followed by substrate addition and measured after 3 hrs by fluorescence based microplate reader assay. The format is cell-based.
The target of the next assay is T2, Histone deacetylase 8 (Homo sapiens, UniProt Q9BY41).
T2 sequence (Q9BY41 whole entry): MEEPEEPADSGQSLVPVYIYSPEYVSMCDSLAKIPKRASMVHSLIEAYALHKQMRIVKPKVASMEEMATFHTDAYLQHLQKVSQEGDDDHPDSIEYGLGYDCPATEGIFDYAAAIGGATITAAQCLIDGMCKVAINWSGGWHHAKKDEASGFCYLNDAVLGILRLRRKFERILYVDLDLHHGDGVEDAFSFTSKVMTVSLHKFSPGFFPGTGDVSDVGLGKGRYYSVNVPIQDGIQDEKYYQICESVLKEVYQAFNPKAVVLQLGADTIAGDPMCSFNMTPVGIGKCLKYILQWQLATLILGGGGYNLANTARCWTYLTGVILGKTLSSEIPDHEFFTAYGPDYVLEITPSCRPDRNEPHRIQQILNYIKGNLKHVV
The assay can be described thus: Inhibition of human recombinant HDAC8 using Boc-Lys-(Tfa)-AMC as substrate preincubated for 5 mins followed by substrate addition and measured after 90 mins by fluorescence based microplate reader analysis.

In another assay the target is T3, Histone deacetylase 7 (Homo sapiens, UniProt Q8WUI4).
T3 sequence (Q8WUI4 whole entry): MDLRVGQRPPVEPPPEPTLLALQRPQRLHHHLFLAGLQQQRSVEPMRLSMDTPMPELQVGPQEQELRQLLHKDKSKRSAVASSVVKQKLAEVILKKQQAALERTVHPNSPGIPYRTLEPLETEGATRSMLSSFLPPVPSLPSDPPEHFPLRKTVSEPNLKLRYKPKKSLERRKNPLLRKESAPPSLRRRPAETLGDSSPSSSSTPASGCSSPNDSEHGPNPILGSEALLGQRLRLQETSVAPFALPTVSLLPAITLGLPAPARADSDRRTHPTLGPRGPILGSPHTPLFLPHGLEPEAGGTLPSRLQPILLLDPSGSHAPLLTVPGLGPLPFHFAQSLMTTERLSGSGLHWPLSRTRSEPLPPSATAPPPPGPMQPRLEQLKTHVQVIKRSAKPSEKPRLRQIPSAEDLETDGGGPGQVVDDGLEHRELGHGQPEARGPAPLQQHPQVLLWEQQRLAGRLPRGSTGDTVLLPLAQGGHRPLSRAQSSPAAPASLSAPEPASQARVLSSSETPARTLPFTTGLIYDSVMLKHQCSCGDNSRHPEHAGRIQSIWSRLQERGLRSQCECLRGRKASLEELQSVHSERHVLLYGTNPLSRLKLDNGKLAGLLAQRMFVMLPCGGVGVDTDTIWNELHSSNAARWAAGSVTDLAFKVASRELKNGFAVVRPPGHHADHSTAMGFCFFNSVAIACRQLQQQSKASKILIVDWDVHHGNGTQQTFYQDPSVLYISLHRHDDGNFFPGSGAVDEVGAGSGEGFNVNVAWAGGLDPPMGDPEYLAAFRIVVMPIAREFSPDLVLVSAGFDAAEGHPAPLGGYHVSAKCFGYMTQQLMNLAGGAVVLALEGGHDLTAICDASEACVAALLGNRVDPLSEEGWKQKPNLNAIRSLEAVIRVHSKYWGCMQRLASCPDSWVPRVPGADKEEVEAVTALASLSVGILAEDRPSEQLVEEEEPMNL
In words: Inhibition of HDAC7 (unknown origin).

One may read the IC50 as the midpoint of a concentration-inhibition curve. In general, inhibition refers to the drop in the measured response relative to a control, in per cent. Higher therefore signals a response far below the control. As a reminder, the residual activity is what remains of the control signal, in per cent. A higher residual activity goes with much activity left.

On to `O=C(NOCc1coc(-c2ccccc2)n1)c1ccc(-c2noc(C(F)(F)F)n2)cc1`, for which the IC50 in the assay on THP-1 [1] is ~100 µM; at Histone deacetylase 4, 0.118 µM; in assay [4], > 100 µM; on Histone deacetylase 2 it was > 100 µM; against Histone deacetylase 11, > 100 µM; in [6] it was 38.1 µM. The IC50 at Histone deacetylase 8 was > 100 µM; at Histone deacetylase 7, 1.97 µM. Moreover, the Activity in the assay on THP-1 [2] was determined as 47%. For the same molecule, the inhibition in the assay with THP-1 [3] worked out at 0%. Besides, in the assay with THP-1 [5], the residual activity turned out to be 76%.
